Results as given in PubChem BioAssay (NCI).
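GI50: concentration for 50% inhibition of growth. TGI marks complete inhibition of growth.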

Experiments:
Experiment in all cases: growth of human tumour cells (NCI), 384-well format
SF-539 CNS = test system: SF-539 CNS
LOX IMVI melanoma = test system: LOX IMVI melanoma
HCT-15 colon = test system: HCT-15 colon
SK-MEL-28 melanoma = test system: SK-MEL-28 melanoma
T-47D breast = test system: T-47D breast
BT-549 breast = test system: BT-549 breast
SN12C renal = test system: SN12C renal
IGROV1 ovarian = test system: IGROV1 ovarian
OVCAR-8 ovarian = test system: OVCAR-8 ovarian
SW-620 colon = test system: SW-620 colon
NCI-H322M lung = test system: NCI-H322M lung
SK-MEL-2 melanoma = test system: SK-MEL-2 melanoma
UACC-257 melanoma = test system: UACC-257 melanoma
UACC-62 melanoma = test system: UACC-62 melanoma
HOP-62 NSCLC = test system: HOP-62 NSCLC
U251 glioblastoma = test system: U251 glioblastoma
NCI-H460 NSCLC = test system: NCI-H460 NSCLC
HCC-2998 colon = test system: HCC-2998 colon
RXF 393 renal = test system: RXF 393 renal
MCF7 breast = test system: MCF7 breast
CAKI-1 renal = test system: CAKI-1 renal
SR leukemia = test system: SR leukemia
UO-31 renal = test system: UO-31 renal
NCI-H522 lung = test system: NCI-H522 lung
MDA-MB-435 melanoma = test system: MDA-MB-435 melanoma
A549 NSCLC = test system: A549 NSCLC
KM12 colon = test system: KM12 colon
SF-268 CNS = test system: SF-268 CNS
SK-MEL-5 melanoma = test system: SK-MEL-5 melanoma
A498 renal = test system: A498 renal
MDA-MB-468 breast = test system: MDA-MB-468 breast
NCI-H226 lung = test system: NCI-H226 lung
OVCAR-5 ovarian = test system: OVCAR-5 ovarian
MOLT-4 leukemia = test system: MOLT-4 leukemia
SF-295 CNS = test system: SF-295 CNS
HT29 colon = test system: HT29 colon
NCI-H23 lung = test system: NCI-H23 lung
SK-OV-3 ovarian = test system: SK-OV-3 ovarian
EKVX NSCLC = test system: EKVX NSCLC
CCRF-CEM leukemia = test system: CCRF-CEM leukemia
SNB-19 CNS = test system: SNB-19 CNS
HCT-116 colon = test system: HCT-116 colon
OVCAR-4 ovarian = test system: OVCAR-4 ovarian
HOP-92 NSCLC = test system: HOP-92 NSCLC
ACHN renal = test system: ACHN renal
SNB-75 CNS = test system: SNB-75 CNS
RPMI-8226 leukemia = test system: RPMI-8226 leukemia

Nc1nc2cc(-c3ccc4ncc(C(=O)N5CCOCC5)n4c3)ccc2o1
GI50 (SF-539 CNS): > 60.9 µM
TGI (SF-539 CNS): > 100 µM
GI50 (LOX IMVI melanoma): 19.5 µM
TGI (LOX IMVI melanoma): > 100 µM
GI50 (HCT-15 colon): 6.21 µM
TGI (HCT-15 colon): > 100 µM
GI50 (SK-MEL-28 melanoma): > 57.6 µM
TGI (SK-MEL-28 melanoma): > 100 µM
GI50 (T-47D breast): 0.574 µM
TGI (T-47D breast): 3.14 µM
GI50 (BT-549 breast): 23.7 µM
TGI (BT-549 breast): > 100 µM
GI50 (SN12C renal): 7.67 µM
TGI (SN12C renal): > 100 µM
GI50 (IGROV1 ovarian): 1.85 µM
TGI (IGROV1 ovarian): 5.23 µM
GI50 (OVCAR-8 ovarian): > 78.2 µM
TGI (OVCAR-8 ovarian): > 100 µM
GI50 (SW-620 colon): 17.7 µM
TGI (SW-620 colon): > 91.4 µM
GI50 (NCI-H322M lung): 6.17 µM
TGI (NCI-H322M lung): > 100 µM
GI50 (SK-MEL-2 melanoma): 30 µM
TGI (SK-MEL-2 melanoma): > 100 µM
GI50 (UACC-257 melanoma): > 100 µM
TGI (UACC-257 melanoma): > 100 µM
GI50 (UACC-62 melanoma): 66.4 µM
TGI (UACC-62 melanoma): > 100 µM
GI50 (HOP-62 NSCLC): > 26.4 µM
TGI (HOP-62 NSCLC): > 100 µM
GI50 (U251 glioblastoma): > 74.7 µM
TGI (U251 glioblastoma): > 100 µM
GI50 (NCI-H460 NSCLC): 2.77 µM
TGI (NCI-H460 NSCLC): > 100 µM
GI50 (HCC-2998 colon): 12.4 µM
TGI (HCC-2998 colon): > 100 µM
GI50 (RXF 393 renal): 40.2 µM
TGI (RXF 393 renal): > 100 µM
GI50 (MCF7 breast): 1.45 µM
TGI (MCF7 breast): > 100 µM
GI50 (CAKI-1 renal): 6.74 µM
TGI (CAKI-1 renal): > 100 µM
GI50 (SR leukemia): 12.2 µM
TGI (SR leukemia): > 100 µM
GI50 (UO-31 renal): 8.62 µM
TGI (UO-31 renal): > 100 µM
GI50 (NCI-H522 lung): 4.05 µM
TGI (NCI-H522 lung): > 74.5 µM
GI50 (MDA-MB-435 melanoma): 24.2 µM
TGI (MDA-MB-435 melanoma): > 100 µM
GI50 (A549 NSCLC): 9.11 µM
TGI (A549 NSCLC): > 100 µM
GI50 (KM12 colon): 28.7 µM
TGI (KM12 colon): > 100 µM
GI50 (SF-268 CNS): 35.1 µM
TGI (SF-268 CNS): > 100 µM
GI50 (SK-MEL-5 melanoma): 5.97 µM
TGI (SK-MEL-5 melanoma): > 59.6 µM
GI50 (A498 renal): 5.93 µM
TGI (A498 renal): > 100 µM
GI50 (MDA-MB-468 breast): 3.93 µM
TGI (MDA-MB-468 breast): > 92.3 µM
GI50 (NCI-H226 lung): > 40.4 µM
TGI (NCI-H226 lung): > 100 µM
GI50 (OVCAR-5 ovarian): 7.68 µM
TGI (OVCAR-5 ovarian): > 100 µM
GI50 (MOLT-4 leukemia): 3.45 µM
TGI (MOLT-4 leukemia): 19.9 µM
TGI (SF-295 CNS): > 95.1 µM
GI50 (HT29 colon): 8.1 µM
TGI (HT29 colon): > 100 µM
GI50 (NCI-H23 lung): 5.59 µM
TGI (NCI-H23 lung): > 100 µM
GI50 (SK-OV-3 ovarian): 2.09 µM
TGI (SK-OV-3 ovarian): 12.3 µM
GI50 (EKVX NSCLC): 5.01 µM
TGI (EKVX NSCLC): > 100 µM
GI50 (CCRF-CEM leukemia): 7.44 µM
TGI (CCRF-CEM leukemia): > 100 µM
GI50 (SNB-19 CNS): > 73.8 µM
TGI (SNB-19 CNS): > 100 µM
GI50 (HCT-116 colon): 5.23 µM
TGI (HCT-116 colon): > 100 µM
GI50 (OVCAR-4 ovarian): > 40.7 µM
TGI (OVCAR-4 ovarian): > 100 µM
GI50 (HOP-92 NSCLC): 2.2 µM
TGI (HOP-92 NSCLC): 18.5 µM
GI50 (ACHN renal): 8.58 µM
TGI (ACHN renal): > 100 µM
GI50 (SNB-75 CNS): 10.2 µM
TGI (SNB-75 CNS): > 75 µM
GI50 (RPMI-8226 leukemia): 1.58 µM
TGI (RPMI-8226 leukemia): 4.55 µM
